Assay results: ChEMBL document CHEMBL1201862, “PubChem BioAssay data set” (2004)
Activity calls are given as the source filed them.

Tests used:
[1] = inhibitors of Trypanosoma cruzi host-cell infection, confirmation, beta-gal luminescence, NIH3T3 host cells (AID 2630); type: functional, cell-based; conditions: Mus musculus
[2] = Luminescence Cell-Based/Microorganism Confirmation at Dose of Inhibitors of Trypanosoma cruzi Infection. [Related pubchem assays: 1885, 1968 ]; type: functional
[3] = Luminescence Cell-Based Secondary HTS screen to identify cytotoxic compounds of NIH3T3 cells. [Related pubchem assays: 1885, 1968 ]; type: functional
HEK293 [4] = assay: cells; conditions: Homo sapiens
HEK293 [5] = assay: cells; conditions: Homo sapiens; remark: listed apart in the source
CAAX prenyl protease 1 = CAAX prenyl protease 1 (Saccharomyces cerevisiae S288c, UniProt P47154); assay: Ste24 protease inhibitors, dose response, biochemical, S. cerevisiae, plate reader, cherry-pick (AID 488815)
CAAX prenyl protease 2 = target: T1, CAAX prenyl protease 2 (Saccharomyces cerevisiae S288c, UniProt Q03530); type: biochemical
T1 sequence (Q03530 whole entry): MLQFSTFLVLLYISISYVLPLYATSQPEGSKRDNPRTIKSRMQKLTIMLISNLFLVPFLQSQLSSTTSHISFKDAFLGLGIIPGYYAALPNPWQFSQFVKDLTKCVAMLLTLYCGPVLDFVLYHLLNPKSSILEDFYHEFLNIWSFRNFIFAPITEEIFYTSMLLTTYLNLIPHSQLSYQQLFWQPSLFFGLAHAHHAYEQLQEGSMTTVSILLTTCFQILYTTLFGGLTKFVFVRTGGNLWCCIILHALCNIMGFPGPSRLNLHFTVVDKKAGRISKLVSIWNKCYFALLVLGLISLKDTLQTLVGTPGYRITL

[6] = ADAM10 inhibitors, peptide cleavage, dose response, biochemical, QFRET (AID 743254);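 note: ADAM10 enzyme with the DM2 quenched FRET peptide as substrate; EDANS fluorescence gain as the protease cuts the substrate; inhibitor potency against ADAM10 proteolytic activity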
[7] = target: Disintegrin and metalloproteinase domain-containing protein 17 (Homo sapiens, UniProt P78536); assay: ADAM17 protease inhibitors, dose response, counter-screen for ADAM10 exosite inhibitor project, biochemical, quenched FRET substrate (AID 743253)
Paired box protein Pax-8 = Paired box protein Pax-8 (Homo sapiens, UniProt Q06710); assay: inhibitors of PAX8-driven TPO luciferase reporter, dose response, RMG-I cells, cherry-pick (AID 687027); type: functional, cell-based;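 note: luciferase reporter driven by Pax8 target thyroperoxidase promoter measured by SteadyGlo luminescence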
[8] = target: Guanyl-specific ribonuclease T1 (Aspergillus oryzae (strain ATCC 42149 / RIB 40), UniProt P00651); assay: RNase T1 inhibitors, dose response, counter-screen for TPT1 inhibitor project, biochemical, fluorescence polarization, 1536-well (AID 2167)
Hexokinase HKDC1 = target: T2, Hexokinase HKDC1 (Homo sapiens, UniProt Q2TB90); assay: HKDC1 hexokinase inhibitors, dose response, biochemical, W721R variant (AID 504729); type: functional
T2 sequence (Q2TB90 whole entry): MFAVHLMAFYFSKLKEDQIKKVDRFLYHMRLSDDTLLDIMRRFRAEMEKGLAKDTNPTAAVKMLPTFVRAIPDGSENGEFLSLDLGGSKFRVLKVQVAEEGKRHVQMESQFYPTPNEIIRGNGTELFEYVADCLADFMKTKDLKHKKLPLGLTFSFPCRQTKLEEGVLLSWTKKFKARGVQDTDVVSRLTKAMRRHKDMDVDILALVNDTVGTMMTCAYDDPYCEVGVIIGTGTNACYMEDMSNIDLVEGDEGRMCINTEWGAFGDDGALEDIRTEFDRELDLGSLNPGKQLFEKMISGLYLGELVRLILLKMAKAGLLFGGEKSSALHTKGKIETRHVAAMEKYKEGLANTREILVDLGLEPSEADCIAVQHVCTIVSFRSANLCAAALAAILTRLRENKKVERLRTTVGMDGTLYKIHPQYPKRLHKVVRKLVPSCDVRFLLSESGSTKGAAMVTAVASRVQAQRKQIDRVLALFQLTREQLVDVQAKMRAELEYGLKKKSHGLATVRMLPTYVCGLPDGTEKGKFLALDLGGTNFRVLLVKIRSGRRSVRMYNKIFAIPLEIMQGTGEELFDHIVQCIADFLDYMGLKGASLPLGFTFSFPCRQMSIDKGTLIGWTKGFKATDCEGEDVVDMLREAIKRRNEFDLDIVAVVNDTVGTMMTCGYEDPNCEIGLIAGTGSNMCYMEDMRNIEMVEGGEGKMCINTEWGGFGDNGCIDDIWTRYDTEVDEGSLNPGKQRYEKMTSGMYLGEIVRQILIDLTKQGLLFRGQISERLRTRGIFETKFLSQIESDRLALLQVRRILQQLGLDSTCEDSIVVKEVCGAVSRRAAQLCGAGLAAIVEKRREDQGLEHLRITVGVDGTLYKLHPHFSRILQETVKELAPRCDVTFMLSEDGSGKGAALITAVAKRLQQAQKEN

[9] = target: Lysine-specific demethylase 4C (Homo sapiens, UniProt Q9H3R0); assay: GASC-1 (JMJD2C) histone demethylase inhibitors, dose response, biochemical, DELFIA europium, cherry-picked samples (AID 488835); type: functional
[10] = target: T3, Dual specificity protein phosphatase 3 (Homo sapiens, UniProt P51452); assay: VHR1 phosphatase inhibitors, primary screen, biochemical, absorbance, uHTS (AID 1654)
[11] = target: Lysine-specific demethylase 4A (Homo sapiens, UniProt O75164); assay: JMJD2A histone demethylase inhibitors, dose response, selectivity assay for GASC-1 inhibitor project, biochemical, DELFIA europium, cherry-picked samples (AID 488840)
[12] = target: Likely tRNA 2'-phosphotransferase (Candida albicans (strain SC5314 / ATCC MYA-2876) (Yeast), UniProt Q5A7N4); assay: TPT1 tRNA phosphotransferase inhibitors, dose response, biochemical, fluorescence polarization (AID 2160)
[13] = target: T3, Dual specificity protein phosphatase 3; assay: VHR1 phosphatase inhibitors, biochemical (AID 1878)
[14] = target: T4, Dual specificity protein phosphatase 6 (Rattus norvegicus, UniProt Q64346); assay: MKP-3 phosphatase inhibitors, primary screen, biochemical, rat enzyme, in vitro (AID 425)
T4 sequence (Q64346 whole entry): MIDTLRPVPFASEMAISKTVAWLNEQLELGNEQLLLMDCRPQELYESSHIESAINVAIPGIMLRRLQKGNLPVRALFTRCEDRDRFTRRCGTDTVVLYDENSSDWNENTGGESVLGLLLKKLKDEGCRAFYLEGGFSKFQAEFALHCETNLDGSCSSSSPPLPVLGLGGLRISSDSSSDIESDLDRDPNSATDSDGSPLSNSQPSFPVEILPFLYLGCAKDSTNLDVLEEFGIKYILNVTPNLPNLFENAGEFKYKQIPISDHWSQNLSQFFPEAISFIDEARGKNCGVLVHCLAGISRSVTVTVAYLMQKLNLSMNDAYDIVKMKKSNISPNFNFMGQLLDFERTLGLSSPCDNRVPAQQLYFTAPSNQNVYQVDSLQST

T3 sequence (P51452 whole entry): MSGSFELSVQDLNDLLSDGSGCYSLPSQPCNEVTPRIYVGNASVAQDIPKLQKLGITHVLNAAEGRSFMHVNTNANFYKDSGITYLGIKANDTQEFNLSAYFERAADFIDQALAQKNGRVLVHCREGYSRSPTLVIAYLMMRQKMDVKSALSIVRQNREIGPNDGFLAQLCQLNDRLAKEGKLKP
Lysine-specific demethylase 4C, sequence (Q9H3R0 whole entry): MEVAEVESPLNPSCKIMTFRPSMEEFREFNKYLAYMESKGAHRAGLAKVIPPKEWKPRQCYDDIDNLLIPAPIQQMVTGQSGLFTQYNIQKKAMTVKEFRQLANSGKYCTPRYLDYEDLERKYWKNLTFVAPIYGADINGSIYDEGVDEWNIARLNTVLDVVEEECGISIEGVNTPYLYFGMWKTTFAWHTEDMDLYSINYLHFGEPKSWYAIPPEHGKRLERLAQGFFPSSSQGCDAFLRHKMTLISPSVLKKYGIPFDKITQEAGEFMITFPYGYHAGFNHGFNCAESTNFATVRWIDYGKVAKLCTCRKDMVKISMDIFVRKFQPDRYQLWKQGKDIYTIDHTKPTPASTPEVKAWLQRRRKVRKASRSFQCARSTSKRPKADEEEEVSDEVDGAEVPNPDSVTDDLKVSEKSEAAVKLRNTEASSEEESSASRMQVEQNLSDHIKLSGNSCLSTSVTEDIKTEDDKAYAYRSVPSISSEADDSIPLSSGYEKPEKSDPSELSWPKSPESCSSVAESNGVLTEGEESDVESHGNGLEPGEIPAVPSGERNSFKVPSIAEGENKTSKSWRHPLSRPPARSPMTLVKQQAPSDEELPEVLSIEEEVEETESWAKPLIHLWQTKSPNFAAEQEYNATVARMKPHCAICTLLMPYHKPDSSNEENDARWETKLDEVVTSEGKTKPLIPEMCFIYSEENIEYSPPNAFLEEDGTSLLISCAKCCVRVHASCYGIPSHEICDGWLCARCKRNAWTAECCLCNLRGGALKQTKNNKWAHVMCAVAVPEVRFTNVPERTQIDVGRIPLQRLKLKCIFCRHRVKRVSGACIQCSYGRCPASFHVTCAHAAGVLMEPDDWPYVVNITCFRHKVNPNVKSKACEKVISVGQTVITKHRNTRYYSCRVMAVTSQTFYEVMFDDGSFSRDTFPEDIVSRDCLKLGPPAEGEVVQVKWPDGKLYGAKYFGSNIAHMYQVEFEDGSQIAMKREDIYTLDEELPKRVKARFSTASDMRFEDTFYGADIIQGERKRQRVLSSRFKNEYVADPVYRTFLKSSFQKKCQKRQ
CAAX prenyl protease 1, sequence (P47154 whole entry): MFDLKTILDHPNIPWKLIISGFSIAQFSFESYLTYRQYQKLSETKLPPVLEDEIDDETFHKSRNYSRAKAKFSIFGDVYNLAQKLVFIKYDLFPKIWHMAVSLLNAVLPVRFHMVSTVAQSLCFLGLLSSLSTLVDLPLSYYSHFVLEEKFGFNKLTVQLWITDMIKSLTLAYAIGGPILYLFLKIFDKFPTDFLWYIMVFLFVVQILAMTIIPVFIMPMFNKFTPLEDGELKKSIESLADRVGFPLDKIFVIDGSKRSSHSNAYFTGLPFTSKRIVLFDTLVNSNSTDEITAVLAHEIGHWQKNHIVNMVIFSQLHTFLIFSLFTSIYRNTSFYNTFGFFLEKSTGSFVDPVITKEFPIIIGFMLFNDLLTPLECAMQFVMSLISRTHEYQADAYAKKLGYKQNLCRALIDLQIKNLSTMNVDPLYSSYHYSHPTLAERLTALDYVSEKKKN
Likely tRNA 2'-phosphotransferase, sequence (Q5A7N4 whole entry): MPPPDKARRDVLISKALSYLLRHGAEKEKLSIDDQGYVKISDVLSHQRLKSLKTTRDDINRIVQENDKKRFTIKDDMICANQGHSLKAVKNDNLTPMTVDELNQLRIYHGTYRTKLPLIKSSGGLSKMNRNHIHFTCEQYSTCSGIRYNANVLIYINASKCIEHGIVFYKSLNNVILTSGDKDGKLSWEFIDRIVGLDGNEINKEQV
Guanyl-specific ribonuclease T1, sequence (P00651 whole entry): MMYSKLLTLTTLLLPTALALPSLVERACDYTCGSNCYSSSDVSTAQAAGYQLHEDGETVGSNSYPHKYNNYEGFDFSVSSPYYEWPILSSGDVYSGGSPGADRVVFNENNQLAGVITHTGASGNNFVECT
Disintegrin and metalloproteinase domain-containing protein 17, sequence (P78536 whole entry, the tested form may be a part): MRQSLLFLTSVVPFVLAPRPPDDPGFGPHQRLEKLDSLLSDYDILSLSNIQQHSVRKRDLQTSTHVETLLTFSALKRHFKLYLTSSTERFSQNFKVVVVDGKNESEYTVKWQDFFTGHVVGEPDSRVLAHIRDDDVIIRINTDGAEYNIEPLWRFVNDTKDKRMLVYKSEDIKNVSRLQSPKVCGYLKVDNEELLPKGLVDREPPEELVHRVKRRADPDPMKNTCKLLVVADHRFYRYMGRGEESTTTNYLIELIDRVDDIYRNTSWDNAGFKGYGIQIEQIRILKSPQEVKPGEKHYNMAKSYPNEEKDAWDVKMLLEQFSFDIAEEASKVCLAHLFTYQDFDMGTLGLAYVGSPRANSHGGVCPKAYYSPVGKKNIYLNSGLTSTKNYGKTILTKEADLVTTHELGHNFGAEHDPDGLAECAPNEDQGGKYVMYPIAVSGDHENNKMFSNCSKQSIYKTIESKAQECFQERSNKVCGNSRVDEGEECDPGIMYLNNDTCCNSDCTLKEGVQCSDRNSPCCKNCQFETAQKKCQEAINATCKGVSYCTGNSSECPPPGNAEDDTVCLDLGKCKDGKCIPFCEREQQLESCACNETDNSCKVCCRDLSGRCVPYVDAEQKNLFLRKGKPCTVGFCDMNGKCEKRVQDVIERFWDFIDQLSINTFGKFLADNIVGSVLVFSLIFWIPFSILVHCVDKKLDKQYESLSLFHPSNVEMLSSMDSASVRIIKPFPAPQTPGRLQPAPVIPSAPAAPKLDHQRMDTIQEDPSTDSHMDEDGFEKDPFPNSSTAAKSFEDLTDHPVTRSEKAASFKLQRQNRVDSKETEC
Lysine-specific demethylase 4A, sequence (O75164 whole entry): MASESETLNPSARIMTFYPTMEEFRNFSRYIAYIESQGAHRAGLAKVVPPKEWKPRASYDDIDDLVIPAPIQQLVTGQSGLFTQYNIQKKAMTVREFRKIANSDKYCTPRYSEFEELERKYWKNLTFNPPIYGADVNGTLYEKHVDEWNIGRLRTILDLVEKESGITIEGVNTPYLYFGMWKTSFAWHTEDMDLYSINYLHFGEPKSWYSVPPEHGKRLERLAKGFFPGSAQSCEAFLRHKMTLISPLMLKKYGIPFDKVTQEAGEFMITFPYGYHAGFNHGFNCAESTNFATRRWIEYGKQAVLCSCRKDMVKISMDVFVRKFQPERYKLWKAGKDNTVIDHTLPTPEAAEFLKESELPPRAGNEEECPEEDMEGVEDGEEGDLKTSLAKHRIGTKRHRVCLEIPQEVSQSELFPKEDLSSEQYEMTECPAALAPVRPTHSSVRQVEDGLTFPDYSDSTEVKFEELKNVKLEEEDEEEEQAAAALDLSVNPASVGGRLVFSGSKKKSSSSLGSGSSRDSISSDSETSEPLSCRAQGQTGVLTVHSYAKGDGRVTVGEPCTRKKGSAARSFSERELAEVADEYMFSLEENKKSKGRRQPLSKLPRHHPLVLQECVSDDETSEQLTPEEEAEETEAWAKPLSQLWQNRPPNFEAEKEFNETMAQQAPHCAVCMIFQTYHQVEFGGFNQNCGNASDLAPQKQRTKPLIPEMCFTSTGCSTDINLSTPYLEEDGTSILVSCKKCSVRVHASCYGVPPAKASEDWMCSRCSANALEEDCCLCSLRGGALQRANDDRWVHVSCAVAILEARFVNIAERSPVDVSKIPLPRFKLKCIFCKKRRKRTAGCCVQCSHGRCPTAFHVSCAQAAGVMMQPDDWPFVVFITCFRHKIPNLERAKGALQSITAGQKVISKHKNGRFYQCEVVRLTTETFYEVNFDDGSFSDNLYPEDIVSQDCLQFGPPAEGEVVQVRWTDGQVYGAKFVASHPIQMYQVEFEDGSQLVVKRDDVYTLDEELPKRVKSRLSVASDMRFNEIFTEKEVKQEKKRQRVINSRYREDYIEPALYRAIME
Paired box protein Pax-8, sequence (Q06710 whole entry): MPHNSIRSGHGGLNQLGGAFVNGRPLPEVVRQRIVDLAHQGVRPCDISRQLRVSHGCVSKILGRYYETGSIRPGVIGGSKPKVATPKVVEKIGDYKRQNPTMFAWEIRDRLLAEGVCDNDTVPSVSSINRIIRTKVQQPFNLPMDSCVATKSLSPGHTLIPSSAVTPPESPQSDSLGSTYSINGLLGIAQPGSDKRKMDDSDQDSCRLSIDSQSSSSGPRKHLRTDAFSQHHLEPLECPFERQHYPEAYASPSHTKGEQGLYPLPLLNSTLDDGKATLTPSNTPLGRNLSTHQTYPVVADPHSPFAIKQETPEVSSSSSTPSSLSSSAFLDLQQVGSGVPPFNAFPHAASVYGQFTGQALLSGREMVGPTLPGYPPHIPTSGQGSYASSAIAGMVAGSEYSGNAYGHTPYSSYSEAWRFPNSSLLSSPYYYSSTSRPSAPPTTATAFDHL

## Fc1ccc(CCNCc2ccc(Cl)c(Cl)c2)cc1
[1]
  EC50: 0.915 µM (active)
[2]
  EC50: 0.915 µM (active)
[3]
  EC50: > 195 µM (not active)

## Brc1ccc2c(c1)-c1ccccc1C1=NCCN12
HEK293 [4]
  EC50: > 59.8 µM (inactive)
HEK293 [5]
  EC50: > 59.8 µM (inactive)

## NC(=O)[C@H]1CC2(CC(c3cccc(NC(=O)COc4ccc(Cl)cc4)c3)=NO2)CN1C(=O)C(c1ccccc1)c1ccccc1 (stereo partly drawn)
CAAX prenyl protease 1
  AC50: 5.73 µM (active)
CAAX prenyl protease 2
  AC50: 2.68 µM (active)
[6]
  IC50: > 69.5 µM (inactive)
[7]
  IC50: > 69.5 µM (inactive)
Paired box protein Pax-8
  AC50: 15.7 µM (active)

## COc1ccc(OC)c(N2C(=O)/C(=C/c3ccco3)C(=O)NC2=S)c1
[8]
  IC50: > 55.7 µM (not active)
Hexokinase HKDC1
  IC50: 2.57 µM (active)
[9]
  AC50: 4.67 µM (active)
[10]
  IC50: < 1.23 µM (inactive)
[11]
  AC50: 16.2 µM (active)
[12]
  IC50: 8.01 µM (active)
[13]
  IC50: < 1.23 µM (inactive)
[14]
  IC50: < 1.23 µM (not active)
